# Measurements from PMC11741111, “Diversification of Lipopeptide Analogues Drives Versatility in Biological Activities” (Journal of Agricultural and Food Chemistry, 2025).
# Columns and labels:
# [1] = tested on: Melon seeds (Rochet Panal - Fitó); test: Promotion of radicle growth evaluation in melon seeds; type: in vivo; details: seeds bathed 1 h, 5 d at 25 °C in the dark; each analog at mixture concentration (7.35 µM); Figure 5A bottom
# Method: Melon seeds (Rochet Panal - Fitó) were surface sterilized with 0.1% sodium hypochlorite and washed twice with distilled water. Seed treatment with the purified variants was performed by bathing the seeds for 1 h at room temperature. The analog concentrations were set to the physiological concentrations obtained from previous calibrations. In addition, a second concentration was assayed as if each analog was the only one produced to reach the same concentration as that of the mixture of each lipopeptide family (Table S3). Since each lipopeptide fraction was reconstituted in methanol, water-treated seeds with the highest concentration of methanol used for lipopeptide treatment were used as control. The methanol concentration ranged from 0.004 to 0.025% for iturins, 0.009 to 0.067% for fengycins and 0.018 to 0.050% for surfactins. The seeds were placed in Petri dishes with moist filter paper and maintained in growth chambers at 25 °C for 5 d under dark conditions. The radicle growth-promoting effects were analyzed on the basis of the radicle areas measured 5 days after seed treatment using Fiji software.[28]
# [2] = tested on: B. velezensis UMAF6639; test: Lipopeptide analog bacterial toxicity (growth dynamics, OD600); type: cell-based, Bacillus velezensis; details: LB, 28 °C, read every 20 min, triplicate; for effect on B. velezensis UMAF6639 growth (OD600 over 24 h), iturin variants at the higher (mixture) concentration: each analog at 7.35 µM; for effect on B. velezensis UMAF6639 growth (OD600 over 24 h), iturin variants at the higher (mixture) concentration / effect on B. velezensis UMAF6639 growth (OD600 over 24 h), iturins at physiological concentration: Figure 6A-E; for effect on B. velezensis UMAF6639 growth (OD600 over 24 h), iturins at physiological concentration: mix 7.35 µM, C13 1.27, C14 2.39, C15 0.76, C16 1.96, C17 0.93 µM; for effect on B. velezensis UMAF6639 growth (OD600 over 24 h), surfactins at physiological concentration: mix 65.83 µM, C12 3.67, C13 16.93, C14 20.49, C15 21.85, C16 4.11 µM; for effect on B. velezensis UMAF6639 growth (OD600 over 24 h), surfactins at physiological concentration / toxicity to B. velezensis UMAF6639 (OD600 over 24 h), surfactin variants at the mixture concentration: Figure 6K-O; for toxicity to B. velezensis UMAF6639 (OD600 over 24 h), surfactin variants at the mixture concentration: each analog at 65.83 µM
# Method: To analyze the toxicity of the lipopeptide variants toward B. velezensis UMAF6639, the wells of 96-well plates with 200 μL of LB medium were inoculated with 5 μL of a bacterial suspension (OD600 = 1), and every analog was added at the desired concentration.
# Methanol concentrations used for lipopeptide treatment in each condition ranged from 0.005 to 4.3%, and the maximum was used as a control to confirm that was not harmful for Bacillus growth. OD600 values were measured in a plate reader (FLUOstar Omega reader, BMG LabTech) in kinetic mode with temperature control (28 °C), with measurements taken every 20 min.
# [3] = tested on: B. velezensis UMAF6639; test: Bacterial counts (CFU) of treated cultures; type: cell-based, Bacillus velezensis; details: analogue at its physiological concentration, sampled 14 h after treatment; compared with methanol control; Figure 7A
# [4] = tested on: B. cinerea; test: Antifungal activity assay (fungal growth, OD600); type: cell-based, Botrytis cinerea; details: 24 h, 25 °C
# Method: B. cinerea spores were harvested from sporulated plates with distilled water and filtered through a […] pore membrane to avoid mycelial contamination. 96-well plates containing 100 μL of PDB with 100 spores per well were used, and the corresponding analog concentrations were analyzed for antifungal activity. H2O2 (10 mM) was used as a positive control to induce fungal death. For this experiment, methanol concentrations used for lipopeptide treatment ranged from 2 to 6% for iturins, 0.08 to 0.5% for fengycins and 0.2 to 4% for surfactins. The highest methanol concentration used for each condition was added to the control. The plates were incubated for 24 h with agitation (150 rpm) at 25 °C. After incubation, the OD600 values of the inoculated plates were measured in a plate reader (FLUOstar Omega reader, BMG LabTech) to evaluate fungal growth within the treatments.
# [5] = tested on: Fusarium oxysporum f. sp. radicis-lycopersici; details: antagonizing Fusarium oxysporum f. sp. radicis-lycopersici; cited from earlier work
# Text: In another recent study, plipastatins, fengycin analogues produced by B. subtilis, were reported to interact with oil bodies (OBs) of the melon seed endosperm, accelerating lipid mobilization and resulting in plant growth promotion (PGP) and immunization.[12] […] Because fengycin B variants have the same fatty acid length, the amino acid at position 6 of the peptide moiety, which differs between fengycin A and B,[46] is important for t ...
substance,measurement,setting,value
"Ser-Asn-Pro-Gln-Asn-Tyr-Asn (head to tail) [C13-iturin A, iturin A analogue with C13 fatty acid chain, iturin Fraction A, purified from B. velezensis UMAF6639]","melon seed radicle growth promotion (radicle area), iturin variants at the same concentration",[1],compromised root development
same,"effect on B. velezensis UMAF6639 growth (OD600 over 24 h), iturin variants at the higher (mixture) concentration",[2],harmless to Bacillus cells
same,"effect on B. velezensis UMAF6639 growth (OD600 over 24 h), iturins at physiological concentration",[2],harmless to Bacillus cells
"Ser-Asn-Pro-Gln-Asn-Tyr-Asn (head to tail) [C17-iturin A, iturin A analogue with C17 fatty acid chain, iturin Fraction E, purified from B. velezensis UMAF6639]","melon seed radicle growth promotion (radicle area), iturin variants at the same concentration",[1],slightly reduced the root area
same,"effect on B. velezensis UMAF6639 growth (OD600 over 24 h), iturin variants at the higher (mixture) concentration",[2],completely arrested B. velezensis growth
"Glu-Leu/Ile-Leu-Val-Asp-Leu-Leu/Ile (lariat or depsi) [C13-surfactin, surfactin analogue with C13 fatty acid, surfactin Fraction B]",bacterial counts (CFU) of B. velezensis UMAF6639 cultures,[3],increased bacterial counts
same,"effect on B. velezensis UMAF6639 growth (OD600 over 24 h), surfactins at physiological concentration",[2],considerable increase in the OD values
"Glu-Orn-Tyr-Thr-Glu-Ala/Val-Pro-Gln-Thr-Ile (lariat or depsi) [C14-fengycin B, fengycin B variant with C14 fatty acid, fengycin Fraction B]","effect on B. velezensis UMAF6639 growth (OD600 over 24 h), fengycin fractions at the highest (mixture) concentration","[2]; each fraction at 25.60 µM, Figure 6F-J",more pronounced
same,"effect on B. velezensis UMAF6639 growth (OD600 over 24 h), fengycins at physiological (lower) concentration","[2]; mix 25.60 µM, fractions B 3.96, C 5.44, D 2.50, E 11.21, F 2.22 µM, Figure 6F-J",slightly delayed growth
same,"antifungal activity (fungal growth, OD600), fengycin variants at the highest concentration tested","[4]; each fraction at mixture concentration (25.60 µM), B. cinerea, PDB, Figure 4B right",weak antifungal activity
"Ser-Asn-Pro-Gln-Asn-Tyr-Asn (head to tail) [C15-iturin A, iturin A analogue with C15 fatty acid chain, iturin Fraction C, purified from B. velezensis UMAF6639]",bacterial counts (CFU) of B. velezensis UMAF6639 cultures,[3],increased bacterial counts
same,"melon seed radicle growth promotion (radicle area), iturin variants at the same concentration",[1],significantly promoted radicle growth
same,"effect on B. velezensis UMAF6639 growth (OD600 over 24 h), iturin variants at the higher (mixture) concentration",[2],"decrease in the optical density, the values remained above those of the untreated control"
same,"effect on B. velezensis UMAF6639 growth (OD600 over 24 h), iturins at physiological concentration",[2],considerable increase in the OD600 value
same,"antifungal activity (fungal growth, OD600), iturins at physiological concentration","[4]; B. cinerea 100 spores/well in PDB, 150 rpm, mix 7.35 µM, C13 1.27, C14 2.39, C15 0.76, C16 1.96, C17 0.93 µM (Table S3), Figure 4A left",failed to exhibit antifungal activity
same,"antifungal activity (fungal growth, OD600), iturin variants at the concentration of the entire mixture","[4]; each variant at 7.35 μM, B. cinerea, PDB, Figure 4A right",sole active analog
"Ser-Asn-Pro-Gln-Asn-Tyr-Asn (head to tail) [C16-iturin A, iturin A analogue with C16 fatty acid chain, iturin Fraction D, purified from B. velezensis UMAF6639]","melon seed radicle growth promotion (radicle area), iturin variants at the same concentration",[1],significantly promoted radicle growth
same,"effect on B. velezensis UMAF6639 growth (OD600 over 24 h), iturin variants at the higher (mixture) concentration",[2],bacterial growth was slightly delayed
same,"effect on B. velezensis UMAF6639 growth (OD600 over 24 h), iturins at physiological concentration",[2],no difference from the control
"Glu-Leu/Ile-Leu-Val-Asp-Leu-Leu/Ile (lariat or depsi) [C12-surfactin, surfactin analogue with C12 fatty acid, surfactin Fraction A]","toxicity to B. velezensis UMAF6639 (OD600 over 24 h), surfactin variants at the mixture concentration",[2],most toxic
same,"antifungal activity (fungal growth, OD600), surfactins at physiological concentration","[4]; B. cinerea, PDB, mix 65.83 µM, C12 3.67, C13 16.93, C14 20.49, C15 21.85, C16 4.11 µM (Table S3), Figure 4C left","no significant antifungal activity at physiological concentrations, except for the C12 analog"
"Glu-Leu/Ile-Leu-Val-Asp-Leu-Leu/Ile (lariat or depsi) [C16-surfactin, surfactin analogue with C16 fatty acid, surfactin Fraction H]","toxicity to B. velezensis UMAF6639 (OD600 over 24 h), surfactin variants at the mixture concentration",[2],most toxic
same,"effect on B. velezensis UMAF6639 growth (OD600 over 24 h), surfactins at physiological concentration",[2],delayed bacterial growth
same,"antifungal activity (fungal growth, OD600), surfactin variants at increased concentration","[4]; each analog at mixture concentration (65.83 µM), B. cinerea, PDB, Figure 4C right",comparable to that of the positive control
"Ser-Asn-Pro-Gln-Asn-Tyr-Asn (head to tail) [C14-iturin A, iturin A analogue with C14 fatty acid chain, iturin Fraction B, purified from B. velezensis UMAF6639]","melon seed radicle growth promotion (radicle area), iturin variants at the same concentration",[1],compromised root development
same,"effect on B. velezensis UMAF6639 growth (OD600 over 24 h), iturin variants at the higher (mixture) concentration",[2],bacterial growth was slightly delayed
same,"effect on B. velezensis UMAF6639 growth (OD600 over 24 h), iturins at physiological concentration",[2],no difference from the control
"Glu-Leu/Ile-Leu-Val-Asp-Leu-Leu/Ile (lariat or depsi) [C15-surfactin, surfactin analogue with C15 fatty acid, surfactin Fractions E, F and G]","effect on B. velezensis UMAF6639 growth (OD600 over 24 h), surfactins at physiological concentration",[2],delayed bacterial growth
"Glu-Orn-Tyr-Thr-Glu-Ala/Val-Pro-Gln-Thr-Ile (lariat or depsi) [fengycin A, fengycin variant with Ala at position 6; literature MIC comparison]",minimal inhibitory concentration,[5],notably greater than that of fengycin B
